Experimental data reported in the NIST ThermoML archive (doi:10.1016/j.tca.2011.10.030).
± gives the expanded uncertainty stated by the source.

What was measured:
[1] = 101 kPa, Liquid; for viscosity: Capillary tube (Ostwald / Ubbelohde) method; for mass density: Vibrating tube method
[2] = xn = mol fraction of the nth substance listed; settings: 101 kPa, Liquid, x2 = 0; for viscosity: Capillary tube (Ostwald / Ubbelohde) method; for mass density: Vibrating tube method

SMILES | viscosity ([1]; 293.15 K) [mPa·s] | mass density ([1]; 293.15 K) [kg/m3] | viscosity ([1]; 303.15 K) [mPa·s] | mass density ([1]; 303.15 K) [kg/m3] | viscosity ([1]; 313.15 K) [mPa·s] | mass density ([1]; 313.15 K) [kg/m3] | viscosity ([1]; 323.15 K) [mPa·s] | mass density ([1]; 323.15 K) [kg/m3] | viscosity ([1]; 333.15 K) [mPa·s] | mass density ([1]; 333.15 K) [kg/m3] | viscosity ([2]; 293.15 K) [mPa·s] | mass density ([2]; 293.15 K) [kg/m3] | viscosity ([2]; 303.15 K) [mPa·s] | mass density ([2]; 303.15 K) [kg/m3] | viscosity ([2]; 313.15 K) [mPa·s] | mass density ([2]; 313.15 K) [kg/m3] | viscosity ([2]; 323.15 K) [mPa·s] | mass density ([2]; 323.15 K) [kg/m3] | viscosity ([2]; 333.15 K) [mPa·s] | mass density ([2]; 333.15 K) [kg/m3]
CCCCCCn1cc[n+](C)c1.F[B-](F)(F)F [1-hexyl-3-methylimidazolium tetrafluoroborate] | 232.65 | 1149.24 ± 5.1 | 130.02 | 1142.48 ± 5.1 | 78.24 | 1135.79 ± 5.1 | 50.3 | 1129.08 ± 5.1 | 34.02 | 1122.37 ± 5.1 |  |  |  |  |  |  |  |  |  | 
CCCO [propan-1-ol] | 2.204 ± 0.02 | 809.62 ± 5 | 1.615 ± 0.015 | 801.43 ± 5 | 1.188 ± 0.011 | 793.09 ± 5 | 0.8796 ± 0.0084 | 784.54 ± 5 |  | 775.74 ± 5 |  |  |  |  |  |  |  |  |  | 
CCCO [propan-1-ol] + CCCCCCn1cc[n+](C)c1.F[B-](F)(F)F |  |  |  |  |  |  |  |  |  |  | 2.204 ± 0.02 | 809.62 ± 5 | 1.615 ± 0.015 | 801.43 ± 5 | 1.188 ± 0.011 | 793.09 ± 5 | 0.8796 ± 0.0084 | 784.54 ± 5 | 0.5985 ± 0.006 | 775.74 ± 5
